Laboratory results reported in publication PMC6332194, “Synthesis of C3/C1-Substituted Tetrahydroisoquinolines” (Molecules, 2015).

Columns and labels:
Test in all cases: fluorogenic peptide-AMC hydrolysis assay
Type in all cases: biochemical
[1] = molecular target: T1, human 20S proteasome, β2-subunits (trypsin-like activity) (Homo sapiens, UniProt Q99436)
T1 construct: gene PSMB7; commercial 20S core particle (Biomol GmbH); with Proteasome subunit beta type-3; Proteasome subunit beta type-5; Proteasome subunit beta type-6; Proteasome subunit beta type-1; Proteasome subunit beta type-2; Proteasome subunit beta type-4; Proteasome subunit alpha type-6; Proteasome subunit alpha type-2; Proteasome subunit alpha type-4; Proteasome subunit alpha type-7; Proteasome subunit alpha type-5; Proteasome subunit alpha type-1; Proteasome subunit alpha type-3
T1 sequence (Q99436 44-277): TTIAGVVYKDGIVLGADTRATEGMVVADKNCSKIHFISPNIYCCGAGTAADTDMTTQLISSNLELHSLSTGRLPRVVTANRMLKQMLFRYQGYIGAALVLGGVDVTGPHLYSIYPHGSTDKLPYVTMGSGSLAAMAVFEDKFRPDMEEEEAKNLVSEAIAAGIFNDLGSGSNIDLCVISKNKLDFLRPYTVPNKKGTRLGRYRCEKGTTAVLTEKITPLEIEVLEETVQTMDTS

[2] = molecular target: T2, human 20S proteasome, β5-subunits (chymotrypsin-like activity) (Homo sapiens, UniProt P28074)
T2 construct: gene PSMB5; commercial 20S core particle (Biomol GmbH); with Proteasome subunit beta type-1; Proteasome subunit beta type-6; Proteasome subunit beta type-7; Proteasome subunit beta type-3; Proteasome subunit beta type-2; Proteasome subunit beta type-4; Proteasome subunit alpha type-6; Proteasome subunit alpha type-2; Proteasome subunit alpha type-4; Proteasome subunit alpha type-7; Proteasome subunit alpha type-5; Proteasome subunit alpha type-1; Proteasome subunit alpha type-3
T2 sequence (P28074 60-263): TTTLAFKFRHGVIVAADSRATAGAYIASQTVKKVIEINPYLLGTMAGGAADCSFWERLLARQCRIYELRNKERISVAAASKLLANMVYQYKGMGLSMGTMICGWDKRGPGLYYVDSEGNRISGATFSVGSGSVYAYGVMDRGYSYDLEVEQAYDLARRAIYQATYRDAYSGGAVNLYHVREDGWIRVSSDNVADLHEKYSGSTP

[3] = molecular target: T3, recombinant Leishmania mexicana cysteine protease CPB2.8 (Leishmania mexicana, UniProt P36400)
T3 construct: gene LMCPB; recombinant; often used without C-terminal extension
T3 sequence (P36400 126-340): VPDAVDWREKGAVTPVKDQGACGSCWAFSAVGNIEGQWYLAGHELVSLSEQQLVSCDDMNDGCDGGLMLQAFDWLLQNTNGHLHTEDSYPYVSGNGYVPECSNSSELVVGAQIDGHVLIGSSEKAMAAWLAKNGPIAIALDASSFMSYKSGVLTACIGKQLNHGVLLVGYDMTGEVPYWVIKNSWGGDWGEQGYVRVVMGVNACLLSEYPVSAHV

In the case of COc1cc2c(cc1O)[C@@H](C)N(C)CC2 [compound 2, N-methylisosalsoline], the inhibition at 20 µM [1] is reported as about 20%, the inhibition at 20 µM [2] is reported as about 40% and the inhibition at 20 µM [3] is reported as about 14%.
